Assay results: the supplement of paper PMC10132981, “Formate overflow drives toxic folate trapping in MTHFD1 inhibited cancer cells” (Nature Metabolism, 2023)

Tests used:
SW620 = assay: cell viability relative to vehicle (resazurin, 96 h); higher = more viable
Description: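 SW620 WT or MTHFD2-/- cells were treated for 96 h with a compound dilution series (log10 M) in RPMI with normal or dialysed FBS. Viability was read by resazurin and is given as % of vehicle.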

HCT116 = assay: cell viability relative to lowest-dose well (resazurin, 96 h); higher = more viable; settings: RPMI + 10% FBS
Summary of the method: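 Compounds from 10 mM DMSO stocks were dispensed as dilution series onto HCT116 (500 cells/well) or SW620 (1,000 cells/well) cells growing in 384-well plates in 50 µl RPMI, 10% FBS and a metabolite supplement. Plates were incubated 96 h at 37 °C, 5% CO2, then resazurin (10 µg ml^−1) was added and its conversion to resorufin read by fluorescence at 595 nm after 5 h. Viability is shown as percent of the lowest-dose well for independent replicate cultures.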

CN(Cc1cnc2nc(N)nc(N)c2n1)c1ccc(C(=O)N[C@@H](CCC(=O)O)C(=O)O)cc1 [methotrexate]
Settings | cell viability [%]
HCT116, 0.001 µM, metabolite supplement: 50uM thymidine | 96.3
HCT116, 0.001 µM, metabolite supplement: 50uM thymidine + 250uM hypoxanthine | 98.1
HCT116, 0.001 µM, metabolite supplement: 250uM hypoxanthine | 97.7
HCT116, 0.001 µM, metabolite supplement: vehicle | 99.2
HCT116, 0.00278 µM, metabolite supplement: 50uM thymidine | 96.8
HCT116, 0.00278 µM, metabolite supplement: 50uM thymidine + 250uM hypoxanthine | 101
HCT116, 0.00278 µM, metabolite supplement: 250uM hypoxanthine | 97.5
HCT116, 0.00278 µM, metabolite supplement: vehicle | 96.37
HCT116, 0.00774 µM, metabolite supplement: 50uM thymidine | 91.8
HCT116, 0.00774 µM, metabolite supplement: 50uM thymidine + 250uM hypoxanthine | 101
HCT116, 0.00774 µM, metabolite supplement: 250uM hypoxanthine | 99.5
HCT116, 0.00774 µM, metabolite supplement: vehicle | 66
HCT116, 0.0215 µM, metabolite supplement: 50uM thymidine | 36.4
HCT116, 0.0215 µM, metabolite supplement: 50uM thymidine + 250uM hypoxanthine | 104
HCT116, 0.0215 µM, metabolite supplement: 250uM hypoxanthine | 43.6
HCT116, 0.0215 µM, metabolite supplement: vehicle | 31.4
HCT116, 0.0599 µM, metabolite supplement: 50uM thymidine | 31.6
HCT116, 0.0599 µM, metabolite supplement: 50uM thymidine + 250uM hypoxanthine | 107
HCT116, 0.0599 µM, metabolite supplement: 250uM hypoxanthine | 18.9
HCT116, 0.0599 µM, metabolite supplement: vehicle | 19.1
HCT116, 0.167 µM, metabolite supplement: 50uM thymidine | 31.9
HCT116, 0.167 µM, metabolite supplement: 50uM thymidine + 250uM hypoxanthine | 109
HCT116, 0.167 µM, metabolite supplement: 250uM hypoxanthine | 16.9
HCT116, 0.167 µM, metabolite supplement: vehicle | 17.6
HCT116, 0.464 µM, metabolite supplement: 50uM thymidine | 31.5
HCT116, 0.464 µM, metabolite supplement: 50uM thymidine + 250uM hypoxanthine | 107
HCT116, 0.464 µM, metabolite supplement: 250uM hypoxanthine | 16.7
HCT116, 0.464 µM, metabolite supplement: vehicle | 16.8
HCT116, 1.29 µM, metabolite supplement: 50uM thymidine | 31.6
HCT116, 1.29 µM, metabolite supplement: 50uM thymidine + 250uM hypoxanthine | 106
HCT116, 1.29 µM, metabolite supplement: 250uM hypoxanthine | 16.5
HCT116, 1.29 µM, metabolite supplement: vehicle | 16.4
HCT116, 3.59 µM, metabolite supplement: 50uM thymidine | 31.3
HCT116, 3.59 µM, metabolite supplement: 50uM thymidine + 250uM hypoxanthine | 105
HCT116, 3.59 µM, metabolite supplement: 250uM hypoxanthine | 16
HCT116, 3.59 µM, metabolite supplement: vehicle | 16.2
HCT116, 10 µM, metabolite supplement: 50uM thymidine | 31.5
HCT116, 10 µM, metabolite supplement: 50uM thymidine + 250uM hypoxanthine | 98.1
HCT116, 10 µM, metabolite supplement: 250uM hypoxanthine | 15.3
HCT116, 10 µM, metabolite supplement: vehicle | 16.4
SW620, log10 compound concentration (M): -8.33985, supplement / serum: RPMI + Normal FBS, base medium: RPMI-1640 | 95.4
SW620, log10 compound concentration (M): -8.33985, supplement / serum: Vehicle, base medium: RPMI + dialysed FBS | 109
SW620, log10 compound concentration (M): -8.81697, supplement / serum: Hypoxanthine + AICAr 10μM, base medium: RPMI + dialysed FBS | 117
SW620, log10 compound concentration (M): -8.81697, supplement / serum: Hypoxanthine + AICAr 30μM, base medium: RPMI + dialysed FBS | 98.4
SW620, log10 compound concentration (M): -8.81697, supplement / serum: Hypoxanthine + AICAr 50μM, base medium: RPMI + dialysed FBS | 108
SW620, log10 compound concentration (M): -8.81697, supplement / serum: Hypoxanthine + AICAr 100μM, base medium: RPMI + dialysed FBS | 90.3
SW620, log10 compound concentration (M): -8.81697, supplement / serum: Hypoxanthine, base medium: RPMI + dialysed FBS | 100
SW620, log10 compound concentration (M): -8.81697, supplement / serum: RPMI + Dialyzed FBS + 50μM Hypoxanthine, base medium: RPMI-1640 | 102
SW620, log10 compound concentration (M): -8.81697, supplement / serum: RPMI + Dialyzed FBS, base medium: RPMI-1640 | 86.4
SW620, log10 compound concentration (M): -8.81697, supplement / serum: RPMI + Normal FBS, base medium: RPMI-1640 | 97.4
SW620, log10 compound concentration (M): -8.81697, supplement / serum: Vehicle, base medium: RPMI + dialysed FBS | 119
SW620, log10 compound concentration (M): -9.29409, supplement / serum: 50 μM Hypoxanthine + 50 μM Thymidine, base medium: RPMI + dialysed FBS | 93.5
SW620, log10 compound concentration (M): -9.29409, supplement / serum: Hypoxanthine + AICAr 10μM, base medium: RPMI + dialysed FBS | 118
SW620, log10 compound concentration (M): -9.29409, supplement / serum: Hypoxanthine + AICAr 30μM, base medium: RPMI + dialysed FBS | 105
SW620, log10 compound concentration (M): -9.29409, supplement / serum: Hypoxanthine + AICAr 50μM, base medium: RPMI + dialysed FBS | 113
SW620, log10 compound concentration (M): -9.29409, supplement / serum: Hypoxanthine + AICAr 100μM, base medium: RPMI + dialysed FBS | 102
SW620, log10 compound concentration (M): -9.29409, supplement / serum: Hypoxanthine, base medium: RPMI + dialysed FBS | 97.3
SW620, log10 compound concentration (M): -9.29409, supplement / serum: RPMI + Dialyzed FBS + 50μM Hypoxanthine, base medium: RPMI-1640 | 96.1
SW620, log10 compound concentration (M): -9.29409, supplement / serum: RPMI + Dialyzed FBS, base medium: RPMI-1640 | 98.9
SW620, log10 compound concentration (M): -9.29409, supplement / serum: RPMI + Normal FBS, base medium: RPMI-1640 | 99.1
SW620, log10 compound concentration (M): -9.29409, supplement / serum: Vehicle, base medium: RPMI + dialysed FBS | 112
SW620, log10 compound concentration (M): -9.77121, supplement / serum: Hypoxanthine + AICAr 10μM, base medium: RPMI + dialysed FBS | 112.06
SW620, log10 compound concentration (M): -9.77121, supplement / serum: Hypoxanthine + AICAr 30μM, base medium: RPMI + dialysed FBS | 94.8
SW620, log10 compound concentration (M): -9.77121, supplement / serum: Hypoxanthine + AICAr 50μM, base medium: RPMI + dialysed FBS | 120.1
SW620, log10 compound concentration (M): -9.77121, supplement / serum: Hypoxanthine + AICAr 100μM, base medium: RPMI + dialysed FBS | 98.9
SW620, log10 compound concentration (M): -9.77121, supplement / serum: Hypoxanthine, base medium: RPMI + dialysed FBS | 101
SW620, log10 compound concentration (M): -9.77121, supplement / serum: RPMI + Dialyzed FBS + 50μM Hypoxanthine, base medium: RPMI-1640 | 94.8
SW620, log10 compound concentration (M): -9.77121, supplement / serum: RPMI + Dialyzed FBS, base medium: RPMI-1640 | 96.3
SW620, log10 compound concentration (M): -9.77121, supplement / serum: RPMI + Normal FBS, base medium: RPMI-1640 | 88.1
SW620, log10 compound concentration (M): -9.77121, supplement / serum: Vehicle, base medium: RPMI + dialysed FBS | 114
